Laboratory results: US12491170B2, “Stable treprostinil prodrugs” (United Therapeutics Corporation, priority 2020, dated 2025)
Where two headings read alike, the source gives them in different places.

Experiments:
[1] = Stability in liver microsomes, human; conditions: for AUC: human
[2] = Stability in liver microsomes, rat
[3] = Stability in liver microsomes, dog
[4] = Stability in cryopreserved hepatocytes, human; conditions: for AUC: human
[5] = Stability in cryopreserved hepatocytes, rat; conditions: for AUC: rat
[6] = Stability in cryopreserved hepatocytes, dog; conditions: for AUC: dog
[7] = rat
[8] = dog

| Structure (SMILES) | Trep Concentration 0 min [1] | Trep Concentration 10 min [1] | Trep Concentration 20 min [1] | Trep Concentration 30 min [1] | Trep Concentration 60 min [1] | AUC [1] | Trep Concentration 0 min [2] | Trep Concentration 10 min [2] | Trep Concentration 20 min [2] | Trep Concentration 30 min [2] | Trep Concentration 60 min [2] | Trep Concentration 0 min [3] | Trep Concentration 10 min [3] | Trep Concentration 20 min [3] | Trep Concentration 30 min [3] | Trep Concentration 60 min [3] | Trep Concentration (μM) 0 min [4] | Trep Concentration (μM) 15 min [4] | Trep Concentration (μM) 30 min [4] | Trep Concentration (μM) 60 min [4] | further results |
| --- | --- | --- | --- | --- | --- | --- | --- | --- | --- | --- | --- | --- | --- | --- | --- | --- | --- | --- | --- | --- | --- |
| CCCCCC(CCC1C(O)CC2Cc3c(cccc3OCC(=O)O)CC21)OC(=O)c1cccc(O)c1 (stereo not shown) [LX] | 0.105 µM | 0.14 µM | 0.137 µM | 0.126 µM | 0.0865 µM | 7.11 µmol·min/L | 0.0226 µM | 0.033 µM | 0.0396 µM | 0.0481 µM | 0.0609 µM | 0.0189 µM | 0.0283 µM | 0.0363 µM | 0.044 µM | 0.059 µM | 0 µM | 0.0671 µM | 0.102 µM | 0.123 µM | Trep Concentration (μM) 120 min [4]: 0.137 µM; AUC [4]: 12.95 µmol·min/L; Trep Concentration (μM) 0 min [5]: 0 µM; Trep Concentration (μM) 15 min [5]: 0.021 µM; Trep Concentration (μM) 30 min [5]: 0.0343 µM; Trep Concentration (μM) 60 min [5]: 0.0477 µM; Trep Concentration (μM) 120 min [5]: 0.0634 µM; AUC [5]: 5.14 µmol·min/L; Trep Concentration (μM) 0 min [6]: 0 µM; Trep Concentration (μM) 15 min [6]: 0.00428 µM; Trep Concentration (μM) 30 min [6]: 0.00492 µM; Trep Concentration (μM) 60 min [6]: 0.00784 µM; AUC [6]: 0.88 µmol·min/L; AUC [7]: 2.72 µmol·min/L; AUC [8]: 2.51 µmol·min/L |
| CCCCCC(CCC1C(O)CC2Cc3c(cccc3OCC(=O)O)CC21)OCCN1CCOCC1 (stereo not shown) [L] | 0.00327 µM | 0.00286 µM | 0.00309 µM | 0.00264 µM | 0.00244 µM | 0.17 µmol·min/L | 0.00345 µM | 0.00356 µM | 0.00419 µM | 0.00488 µM | 0.00552 µM | 0.00302 µM | 0.00333 µM | 0.00398 µM | 0.00409 µM | 0.00389 µM | 0.00177 µM | 0.00195 µM | 0.00202 µM | 0.00194 µM | Trep Concentration (μM) 120 min [4]: 0.00197 µM; AUC [4]: 0.23 µmol·min/L; Trep Concentration (μM) 0 min [5]: 0 µM; Trep Concentration (μM) 15 min [5]: 0.00347 µM; Trep Concentration (μM) 30 min [5]: 0.00366 µM; Trep Concentration (μM) 60 min [5]: 0.00352 µM; Trep Concentration (μM) 120 min [5]: 0.0034 µM; AUC [5]: 0.39 µmol·min/L; Trep Concentration (μM) 0 min [6]: 0.00247 µM; Trep Concentration (μM) 15 min [6]: 0.00312 µM; Trep Concentration (μM) 30 min [6]: 0.0106 µM; Trep Concentration (μM) 60 min [6]: 0.00355 µM; Trep Concentration (μM) 120 min [6]: 0.00568 µM; AUC [6]: 0.63 µmol·min/L; AUC [7]: 0.28 µmol·min/L; AUC [8]: 0.23 µmol·min/L |
| CCCCCC(CCC1C(O)CC2Cc3c(cccc3OCC(=O)O)CC21)OC(C)=O (stereo not shown) [XLIII] | 0.883 µM | 0.681 µM | 0.602 µM | 0.513 µM | 0.341 µM | 32.62 µmol·min/L | 0.035 µM | 0.0741 µM | 0.111 µM | 0.145 µM | 0.206 µM | 0.964 µM | 0.917 µM | 0.899 µM | 0.932 µM | 0.873 µM | 0.00744 µM | 0.573 µM | 0.623 µM | 0.54 µM | Trep Concentration (μM) 120 min [4]: 0.507 µM; AUC [4]: 62.18 µmol·min/L; Trep Concentration (μM) 0 min [5]: 0.00292 µM; Trep Concentration (μM) 15 min [5]: 0.161 µM; Trep Concentration (μM) 30 min [5]: 0.266 µM; Trep Concentration (μM) 60 min [5]: 0.397 µM; Trep Concentration (μM) 120 min [5]: 0.503 µM; AUC [5]: 41.38 µmol·min/L; Trep Concentration (μM) 0 min [6]: 0.0381 µM; Trep Concentration (μM) 30 min [6]: 0.543 µM; Trep Concentration (μM) 60 min [6]: 0.446 µM; Trep Concentration (μM) 120 min [6]: 0.4 µM; AUC [6]: 53.99 µmol·min/L; AUC [7]: 8.02 µmol·min/L; AUC [8]: 54.72 µmol·min/L |

More lines, main results first:

| Trep Concentration 0 min [1] | Trep Concentration 10 min [1] | Trep Concentration 20 min [1] | Trep Concentration 30 min [1] | Trep Concentration 60 min [1] | AUC [1] | Trep Concentration 0 min [2] | Trep Concentration 10 min [2] | Trep Concentration 20 min [2] | Trep Concentration 30 min [2] | Trep Concentration 60 min [2] | Trep Concentration 0 min [3] | Trep Concentration 10 min [3] | Trep Concentration 20 min [3] | Trep Concentration 30 min [3] | Trep Concentration 60 min [3] | Trep Concentration (μM) 0 min [4] | Trep Concentration (μM) 15 min [4] | Trep Concentration (μM) 30 min [4] | Trep Concentration (μM) 60 min [4] | Structure (SMILES) | further results |
| --- | --- | --- | --- | --- | --- | --- | --- | --- | --- | --- | --- | --- | --- | --- | --- | --- | --- | --- | --- | --- | --- |
| 0.202 µM | 0.302 µM | 0.322 µM | 0.337 µM | 0.352 µM | 19.27 µmol·min/L | 0.0583 µM | 0.0944 µM | 0.0864 µM | 0.0909 µM | 0.123 µM | 0.119 µM | 0.219 µM | 0.322 µM | 0.366 µM | 0.475 µM | 0 µM | 0.342 µM | 0.304 µM | 0.345 µM | CCCCCC(CCC1C(O)CC2Cc3c(cccc3OCC(=O)O)CC21)OC(=O)c1ccc(C)cc1 (stereo not shown) [XLVIII] | Trep Concentration (μM) 120 min [4]: 0.347 µM; AUC [4]: 37.91 µmol·min/L; Trep Concentration (μM) 0 min [5]: 0 µM; Trep Concentration (μM) 15 min [5]: 0.1 µM; Trep Concentration (μM) 30 min [5]: 0.141 µM; Trep Concentration (μM) 60 min [5]: 0.221 µM; Trep Concentration (μM) 120 min [5]: 0.318 µM; AUC [5]: 24.16 µmol·min/L; Trep Concentration (μM) 0 min [6]: 0 µM; Trep Concentration (μM) 15 min [6]: 0.0841 µM; Trep Concentration (μM) 30 min [6]: 0.115 µM; Trep Concentration (μM) 60 min [6]: 0.177 µM; Trep Concentration (μM) 120 min [6]: 0.214 µM; AUC [6]: 18.23 µmol·min/L; AUC [7]: 5.76 µmol·min/L; AUC [8]: 20.45 µmol·min/L |
| 0.326 µM | 0.342 µM | 0.341 µM | 0.326 µM | 0.23 µM | 18.43 µmol·min/L | 0.779 µM | 0.791 µM | 0.79 µM | 0.802 µM | 0.681 µM | 0.892 µM | 0.975 µM | 0.948 µM | 0.945 µM | 0.86 µM | 0.041 µM | 0.228 µM | 0.264 µM | 0.312 µM | CCCCC[C@H]1CC[C@@H]2[C@H]3Cc4cccc(OCC(=O)O)c4C[C@H]3C[C@H]2OC(=O)O1 [XXIV] | Trep Concentration (μM) 120 min [4]: 0.328 µM; AUC [4]: 33.55 µmol·min/L; Trep Concentration (μM) 0 min [5]: 0.365 µM; Trep Concentration (μM) 15 min [5]: 0.581 µM; Trep Concentration (μM) 30 min [5]: 0.531 µM; Trep Concentration (μM) 60 min [5]: 0.482 µM; Trep Concentration (μM) 120 min [5]: 0.431 µM; AUC [5]: 58.02 µmol·min/L; Trep Concentration (μM) 0 min [6]: 0.0779 µM; Trep Concentration (μM) 15 min [6]: 0.461 µM; Trep Concentration (μM) 30 min [6]: 0.438 µM; Trep Concentration (μM) 60 min [6]: 0.349 µM; Trep Concentration (μM) 120 min [6]: 0.296 µM; AUC [6]: 41.94 µmol·min/L; AUC [7]: 45.96 µmol·min/L; AUC [8]: 55.49 µmol·min/L |
